Usually IC50 stands for the concentration at which inhibition is half-maximal.

Results on two compounds are retold here after ChEMBL document CHEMBL4602682, “Ikoamide, an Antimalarial Lipopeptide from an Okeania sp. Marine Cyanobacterium” (J Nat Prod, 2020).

Series [1] concerns HL-60. Nature of the series: Cytotoxicity against human HL60 cells incubated for 72 hrs by MTT assay. Conditions: HL-60, 72 h. The class given is cell-based. A general note: Formazan colour is commonly taken as a measure of viable cells.
In the next series the test system is Plasmodium falciparum. The series can be described thus: Antiplasmodial activity against asexual erythrocytic stage of Plasmodium falciparum 3D7 assessed as reduction in parasite growth after 72 hrs by LDH assay. Type of series: functional, organism-based. Conditions: 3D7, 72 h.
Series [2] concerns HL-60. Nature of the series: Cytotoxicity against human HL60 cells at 10 uM incubated for 72 hrs by MTT assay. The class given is cell-based. Conditions: hl-60, 72 h.
In a further series the test system is HeLa. Nature of the series: Cytotoxicity against human HeLa cells at 10 uM incubated for 72 hrs by MTT assay. The class given is cell-based.

Compound `COc1cccc2c1C(=O)c1c(O)c3c(c(O)c1C2=O)C[C@@](O)(C(=O)CO)C[C@@H]3O[C@H]1C[C@H](N)[C@H](O)[C@H](C)O1` [DOXORUBICIN] had an IC50 in the series with HL-60 [1] of 46 nM.

Consider `CCC[C@H](C[C@@H](CC(=O)N(C)[C@@H](C(=O)N[C@H](CO)C(=O)N[C@H](CC(C)C)C(=O)N(C)[C@@H](CC(C)C)C(=O)N[C@H](C(=O)N(C)[C@H](C(=O)N(C)[C@@H](CCC(N)=O)C(=O)N(C)[C@@H](Cc1ccc(OC)cc1)C(=O)OC)[C@@H](C)CC)[C@@H](C)O)[C@@H](C)CC)OC)OC`, for which, in the series with Plasmodium falciparum, the 50% inhibitory concentration (IC50) was 140 nM. The Activity entry in the series on HL-60 [2] and in the series on HeLa was “Non-Toxic” in each case.
